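Results reflect a 48-hour exposure of cells in 96-well plates to compound at five concentrations. Here, GI50 denotes the concentration required for 50% inhibition of growth. TGI: concentration producing complete growth inhibition.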

Some test systems named below: SF-268 CNS; SNB-75 CNS; SW-620 colon; SK-MEL-28 melanoma; UO-31 renal; K-562 leukemia; OVCAR-8 ovarian; RXF 393 renal; HCC-2998 colon; NCI-H460 lung.
Common to all, as to experiment: inhibition of tumour cell growth, NCI panel, 48 h

Regarding `C=C(C(=O)OCC)C(=O)OCC`, the TGI in the experiment on SF-268 CNS, in the experiment with SNB-75 CNS, in the experiment with SW-620 colon, in the experiment with SK-MEL-28 melanoma, in the experiment on UO-31 renal and with K-562 leukemia was over 100 µM throughout. Further, the TGI in the experiment with OVCAR-8 ovarian, in the experiment on RXF 393 renal, in the experiment on HCC-2998 colon and in the experiment with NCI-H460 lung was over 100 µM each time.
`Nc1ccc(N=Nc2c(S(=O)(=O)O)cc3ccccc3c2S(=O)(=O)O)cc1`: the TGI in the experiment with SF-268 CNS, with SNB-75 CNS, in the experiment with SW-620 colon, in the experiment on SK-MEL-28 melanoma, in the experiment on UO-31 renal and with K-562 leukemia was over 100 µM throughout. Besides, the TGI with OVCAR-8 ovarian, in the experiment with RXF 393 renal, with HCC-2998 colon and in the experiment on NCI-H460 lung was over 100 µM throughout.
Turning to `O=c1oc2cc(O)ccc2c(O)c1C(c1ccccc1)c1c(O)c2ccc(O)cc2oc1=O`, the TGI in the experiment on SF-268 CNS, in the experiment with SNB-75 CNS, with SW-620 colon, in the experiment with SK-MEL-28 melanoma, in the experiment on UO-31 renal and with K-562 leukemia was over 100 µM in each case. In addition, the TGI in the experiment with OVCAR-8 ovarian, in the experiment on RXF 393 renal, in the experiment with HCC-2998 colon and in the experiment with NCI-H460 lung was over 100 µM throughout.
In the case of `O=C1CC2(CCC(O)(c3ccc4ccccc4c3)C(C(=O)c3ccc4ccccc4c3)C2)C(=O)c2ccccc2N1` (stereo not given), the TGI with SF-268 CNS, with SNB-75 CNS, with SW-620 colon, in the experiment on SK-MEL-28 melanoma, with UO-31 renal and with K-562 leukemia was over 100 µM in each case. Also, the TGI in the experiment on OVCAR-8 ovarian, with RXF 393 renal, in the experiment on HCC-2998 colon and with NCI-H460 lung was over 100 µM in each case.
Consider `O=C1CCC(c2ccccc2)=NN1c1nsc2ccccc12`, for which the TGI in the experiment with SF-268 CNS, in the experiment on SNB-75 CNS, in the experiment with SW-620 colon, in the experiment on SK-MEL-28 melanoma, in the experiment on UO-31 renal and in the experiment with K-562 leukemia was over 100 µM throughout. The TGI with OVCAR-8 ovarian, with RXF 393 renal, in the experiment on HCC-2998 colon and with NCI-H460 lung was over 100 µM each time.
In the case of `O=C(O)C(Cl)(Cl)Cl`, the TGI in the experiment on SF-268 CNS, in the experiment with SNB-75 CNS, in the experiment with SW-620 colon, in the experiment with SK-MEL-28 melanoma, in the experiment on UO-31 renal and in the experiment on K-562 leukemia was over 100 µM each time. Moreover, the TGI in the experiment with OVCAR-8 ovarian, in the experiment with RXF 393 renal, with HCC-2998 colon and in the experiment on NCI-H460 lung was over 100 µM in each case.
In the case of `CCCCCCCCCCCCCCCCNc1cccc2ccccc12`, the TGI with SF-268 CNS, in the experiment on SNB-75 CNS, in the experiment on SW-620 colon, with SK-MEL-28 melanoma, in the experiment with UO-31 renal and with K-562 leukemia was over 100 µM throughout. The TGI with OVCAR-8 ovarian, in the experiment on RXF 393 renal, with HCC-2998 colon and with NCI-H460 lung was over 100 µM throughout.
`C[n+]1c(/C=C/c2c(O)ccc3ccccc23)ccc2ccccc21`: the GI50 in the experiment with SF-268 CNS was 7.19 µM; with SNB-75 CNS, 6.15 µM; in the experiment with SW-620 colon, 6.06 µM; in the experiment on SK-MEL-28 melanoma, 7.91 µM; with UO-31 renal it was 1.68 µM; with K-562 leukemia, 2.22 µM. Besides, the GI50 in the experiment with OVCAR-8 ovarian was 5.2 µM; in the experiment on RXF 393 renal, 4.54 µM; in the experiment on HCC-2998 colon, 6.63 µM; with NCI-H460 lung it was 6.32 µM. The TGI with SF-268 CNS was found to be 16.7 µM; in the experiment on SNB-75 CNS, 14.2 µM; in the experiment on SW-620 colon, 16.1 µM; with SK-MEL-28 melanoma, 15.1 µM; in the experiment with UO-31 renal it was 12 µM; with K-562 leukemia, 13.4 µM. Besides, the TGI in the experiment on OVCAR-8 ovarian was 14.9 µM; with RXF 393 renal, 10.7 µM; in the experiment with HCC-2998 colon it was 13.4 µM; in the experiment on NCI-H460 lung, 14.5 µM.
For the compound `COc1cc2c(cc1OC)C(C(c1ccccc1)c1ccccc1)N(C)CC2` (stereo not given), the TGI with SF-268 CNS is over 100 µM; in the experiment with SNB-75 CNS, 99.5 µM; with SW-620 colon it was over 100 µM; in the experiment with SK-MEL-28 melanoma, over 100 µM; in the experiment with UO-31 renal it was over 100 µM; in the experiment with K-562 leukemia, over 100 µM. Also, the TGI is over 100 µM in the experiment on OVCAR-8 ovarian, 60.2 µM with RXF 393 renal, 63.8 µM in the experiment with HCC-2998 colon and over 100 µM with NCI-H460 lung.
Consider `C[N+](C)([O-])CCOc1cc2c(c3ccccc13)-c1ccccc1C2=O`, for which the TGI was 36.4 µM in the experiment on SF-268 CNS; 53.2 µM in the experiment on SNB-75 CNS; 86.3 µM with SW-620 colon; 39.1 µM with SK-MEL-28 melanoma; 40 µM in the experiment on UO-31 renal; over 95.2 µM in the experiment on K-562 leukemia. Moreover, the TGI in the experiment with OVCAR-8 ovarian was over 93.1 µM; in the experiment with RXF 393 renal, 33.2 µM; with HCC-2998 colon, 29.2 µM; with NCI-H460 lung it was 43.2 µM.
For the compound `COc1cnc2c(c1)C(=O)c1c-2n(CCCN2CCOCC2)c(=O)c2cc(Cl)ccc12`, the GI50 is 0.288 µM in the experiment on SF-268 CNS; 15.1 µM in the experiment with SNB-75 CNS; 0.232 µM in the experiment on SW-620 colon; over 100 µM in the experiment on SK-MEL-28 melanoma; 0.349 µM in the experiment with UO-31 renal; 0.525 µM with K-562 leukemia. Also, the GI50 in the experiment with OVCAR-8 ovarian was 0.578 µM; in the experiment on RXF 393 renal, 0.332 µM; in the experiment on HCC-2998 colon, over 100 µM; with NCI-H460 lung it was 0.0701 µM. Besides, the TGI in the experiment on SF-268 CNS is over 100 µM; with SNB-75 CNS it was 57.1 µM; in the experiment on SW-620 colon, over 100 µM; in the experiment on SK-MEL-28 melanoma it was over 100 µM; in the experiment on UO-31 renal, over 100 µM; in the experiment on K-562 leukemia, over 100 µM. Also, the TGI in the experiment on OVCAR-8 ovarian is over 100 µM; in the experiment on RXF 393 renal, 28 µM; with HCC-2998 colon, over 100 µM; in the experiment with NCI-H460 lung, over 100 µM.
With `NC(=O)c1c(NC(=O)c2ccccc2)sc2c1CCC(=O)C2`, the GI50 with SF-268 CNS was 2.81 µM; with SNB-75 CNS it was 1.23 µM; in the experiment with SW-620 colon, 0.352 µM; in the experiment on SK-MEL-28 melanoma, 2.88 µM; in the experiment with UO-31 renal, 0.865 µM; in the experiment with K-562 leukemia it was 0.402 µM. Besides, the GI50 was 1.33 µM in the experiment with OVCAR-8 ovarian, 1.17 µM with RXF 393 renal, 2.1 µM in the experiment with HCC-2998 colon and 3.04 µM with NCI-H460 lung. Also, the TGI in the experiment with SF-268 CNS is over 100 µM; in the experiment on SNB-75 CNS, 6.05 µM; in the experiment with SW-620 colon it was 2.93 µM; in the experiment on SK-MEL-28 melanoma, 19.2 µM; in the experiment on UO-31 renal, 2.32 µM; with K-562 leukemia it was over 100 µM. For the same compound, the TGI was over 100 µM with OVCAR-8 ovarian, 5.46 µM in the experiment on RXF 393 renal, 11 µM with HCC-2998 colon and over 100 µM with NCI-H460 lung.
